Measured values taken from patent publication US20250213574A1, “THERAPEUTIC COMBINATIONS COMPRISING UBIQUITIN- SPECIFIC-PROCESSING PROTEASE 1 (USP1) INHIBITORS AND CHEMOTHERAPY AGENTS” (KSQ Therapeutics, Inc., priority 2022, published 2025).
“And” between values parts separate entries of the source, which are not always exact repeats. Identical values can stand only once. Like-named read-outs stand apart in the source and are kept apart here. Blank lines part the entries; values can stand above or below the compound they belong to.

Tests used:
Assay type in all cases: cell-based
[1] = system: A549; assay: Colony formation (CFU) assay, A549; conditions: Homo sapiens, 336 h; A549, lung; CFU ~14 days; wells with DMSO or 300 nM Compound 1; read-out: Chemotherapy nM IC50s
Experimental: (§1) In vitro experiments were conducted using the colony formation unit (CFU) assay on various cell lines. The CFU assay involved first establishing what cell plating density enabled the development of clearly interspersed colonies on a six-well plate when left to grow for around 14 days. […] At or around day 14 when clearly interspersed colonies were visible in the DMSO-treated wells, the cells were fixed and stained using 0.1% crystal violet in 10% ethanol for 20 minutes at room temperature. The plates were imaged then the amount of crystal violet stain in each well was quantified by extracting the crystal violet into 10% acetic acid and the absorbance measured at 565 nm.
(§2) For certain cell lines, multiple IC50 values were taken, and those are separated by commas. Synergy scores are in parentheticals.

[2] = system: ACCMESO1; assay: Colony formation (CFU) assay, ACCMESO1; conditions: ACCMESO1, pleura, CFU ~14 days, wells with DMSO or 300 nM Compound 1, read-out: Chemotherapy nM IC50s
Experimental: as §1, §2

[3] = system: NCIH1915; assay: Colony formation (CFU) assay, NCIH1915; conditions: NCI-H1915, 336 h; NCIH1915, lung; CFU ~14 days; wells with DMSO or 300 nM Compound 1; read-out: Chemotherapy nM IC50s
Experimental: as §1, §2

[4] = system: MERO14; assay: Colony formation (CFU) assay, MERO14; conditions: 336 h, CFU ~14 days, wells with DMSO or 300 nM Compound 1, read-out: Chemotherapy nM IC50s
Experimental: as §1, §2

[5] = system: MSTO211H; assay: Colony formation (CFU) assay, MSTO211H; conditions: pleura, CFU ~14 days, wells with DMSO or 300 nM Compound 1, read-out: Chemotherapy nM IC50s
Experimental: as §1, §2

[6] = system: NCIH2452; assay: Colony formation (CFU) assay, NCIH2452; conditions: Homo sapiens, NCI-H2452, 336 h; NCIH2452, pleura; CFU ~14 days; wells with DMSO or 300 nM Compound 1; read-out: Chemotherapy nM IC50s
Experimental: as §1, §2

[7] = system: MERO83; assay: Colony formation (CFU) assay, MERO83; conditions: 336 h, CFU ~14 days, wells with DMSO or 300 nM Compound 1, read-out: Chemotherapy nM IC50s
Experimental: as §1, §2

[8] = system: UWB1289; assay: Colony formation (CFU) assay, UWB1289; conditions: 336 h; UWB1289, ovary; CFU ~14 days; wells with DMSO or 300 nM Compound 1; read-out: Chemotherapy nM IC50s
Experimental: as §1, §2

[9] = system: CAPAN2; assay: Colony formation (CFU) assay, CAPAN2; conditions: CAPAN2, pancreas, CFU ~14 days, wells with DMSO or 300 nM Compound 1, read-out: Chemotherapy nM IC50s
Experimental: as §1, §2

[10] = system: HPAC; assay: Colony formation (CFU) assay, HPAC; conditions: Homo sapiens, 336 h, pancreas, CFU ~14 days, wells with DMSO or 300 nM Compound 1, read-out: Chemotherapy nM IC50s
Experimental: as §1, §2

[11] = system: COV362; assay: Colony formation (CFU) assay, COV362; conditions: COV362, 336 h, read-out: Chemotherapy nM IC50s
Experimental: as §1, §2

[12] = system: SW948; assay: Colony formation (CFU) assay, SW948; conditions: SW948, colon; for IC50: CFU ~14 days, wells with DMSO or 300 nM Compound 1, read-out: Chemotherapy nM IC50s
Experimental: as §1, §2

[13] = system: ASPC1; assay: Colony formation (CFU) assay, ASPC1; conditions: ASPC1, pancreas
Experimental: as §1, §2

[14] = system: HCT15; assay: Colony formation (CFU) assay, HCT15; conditions: Homo sapiens, HCT-15, 336 h; HCT15, colon; CFU ~14 days; wells with DMSO or 300 nM Compound 1; read-out: Chemotherapy nM IC50s
Experimental: as §1, §2

[15] = system: various cell lines; assay: Colony formation (CFU) assay, summary over cell lines of Table 1; conditions: combination of USP1 inhibitor (Compound 1, 300 nM) and the chemotherapy agent
Experimental: as §1
In certain cell lines, combinations of the disclosure are synergistic. In some aspects, these combinations are determined to have a Bliss score is about 6, about 7, about 8, about 9, about 10, about 11, about 12, about 13, about 14, about 15, about 16, about 17, about 18, about 19, about 20 or about 25.

[16] = system: GSU; assay: Colony formation (CFU) assay, GSU; conditions: stomach, chemotherapy agent in combination with 300 nM Compound 1
Experimental: as §1, §2

[17] = system: OVSAHO; assay: Colony formation (CFU) assay, OVSAHO; conditions: Homo sapiens, 336 h, ovary, CFU ~14 days, wells with DMSO or 300 nM Compound 1, read-out: Chemotherapy nM IC50s
Experimental: as §1, §2

[18] = system: KU1919; assay: Colony formation (CFU) assay, KU1919; conditions: KU1919, bladder; CFU ~14 days; wells with DMSO or 300 nM Compound 1; read-out: Chemotherapy nM IC50s
Experimental: as §1, §2

[19] = system: KALS1; assay: Colony formation (CFU) assay, KALS1; conditions: KALS1, nervous system; CFU ~14 days; wells with DMSO or 300 nM Compound 1; read-out: Chemotherapy nM IC50s
Experimental: as §1, §2

[20] = system: KYSE270; assay: Colony formation (CFU) assay, KYSE270; conditions: KYSE270, esophagus; CFU ~14 days; wells with DMSO or 300 nM Compound 1; read-out: Chemotherapy nM IC50s
Experimental: as §1, §2

[21] = system: MDAMB231; assay: Colony formation (CFU) assay, MDAMB231; conditions: MDAMB231, breast; CFU ~14 days; wells with DMSO or 300 nM Compound 1; read-out: Chemotherapy nM IC50s
Experimental: as §1, §2

[22] = system: UMUC3; assay: Colony formation (CFU) assay, UMUC3; conditions: UMUC3, bladder; CFU ~14 days; wells with DMSO or 300 nM Compound 1; read-out: Chemotherapy nM IC50s
Experimental: as §1, §2

[23] = system: NCIH596; assay: Colony formation (CFU) assay, NCIH596; conditions: NCIH596, lung; CFU ~14 days; wells with DMSO or 300 nM Compound 1; read-out: Chemotherapy nM IC50s
Experimental: as §1, §2

[24] = system: 647V; assay: Colony formation (CFU) assay, 647V; conditions: bladder, CFU ~14 days, wells with DMSO or 300 nM Compound 1, read-out: Chemotherapy nM IC50s
Experimental: as §1, §2

[25] = system: HCT116; assay: Colony formation (CFU) assay, HCT116; conditions: HCT116, colon; CFU ~14 days; wells with DMSO or 300 nM Compound 1; read-out: Chemotherapy nM IC50s
Experimental: as §1, §2

[26] = system: SUM149PT; assay: Colony formation (CFU) assay, SUM149PT; conditions: breast, CFU ~14 days, wells with DMSO or 300 nM Compound 1, read-out: Chemotherapy nM IC50s
Experimental: as §1, §2

[27] = system: HCC1806; assay: Colony formation (CFU) assay, HCC1806; conditions: HCC1806, breast; CFU ~14 days; wells with DMSO or 300 nM Compound 1; read-out: Chemotherapy nM IC50s (converted)
Experimental: as §1, §2

[28] = system: KYSE70; assay: Colony formation (CFU) assay, KYSE70; conditions: KYSE70, esophagus; CFU ~14 days; wells with DMSO or 300 nM Compound 1; read-out: Chemotherapy nM IC50s
Experimental: as §1, §2

[29] = chemotherapy agent in combination with 300 nM Compound 1

IC50 [1]: 6870 nM
IC50 ([2]; ACC-MESO-1, 336 h): 172 nM
IC50 [3]: 185 nM
IC50 [4]: > 3000 nM
IC50 ([5]; Homo sapiens, MSTO-211H, 336 h): 41 nM
IC50 [5]: 50 nM
IC50 [6]: 48 nM
IC50 [7]: > 3000 nM
SMILES: Nc1nc2[nH]cc(CCc3ccc(C(=O)N[C@@H](CCC(=O)O)C(=O)O)cc3)c2c(=O)[nH]1 [Pemetrex, pemetrexed]

SMILES: CC[C@@]1(O)C(=O)OCc2c1cc1n(c2=O)Cc2cc3ccccc3nc2-1 [Campto., camptothecin]
IC50 [8]: 18 nM
IC50 [9]: 11 nM
IC50 ([9]; Homo sapiens, Capan-2, 336 h): 8 nM
IC50 [10]: 5 nM
IC50 [11]: 274 nM
IC50 ([12]; Homo sapiens, SW948, 336 h): 10 nM
IC50 [12]: 6 nM
synergy score [12, 29]: (−3)
synergy score [13, 29]: −5
IC50 ([13]; Homo sapiens, 336 h, CFU ~14 days, wells with DMSO or 300 nM Compound 1, read-out: Chemotherapy nM IC50s): 3 nM
IC50 [14]: 5 nM
synergy of combination with USP1 inhibitor [15]: synergy was detected
synergy score [16]: 13
IC50 [17]: 177 nM

SMILES: CO[C@@]12[C@H](COC(N)=O)C3=C(C(=O)C(C)=C(N)C3=O)N1C[C@@H]1N[C@@H]12 [Mito. C, mitomycin C]
IC50 [18]: 16 nM
IC50 [19]: 632 nM
IC50 [2]: 10 nM and 13 nM
IC50 [20]: 15 nM and 11 nM
IC50 [21]: 14 nM
IC50 [22]: 18 nM and 12 nM
IC50 [23]: 10 nM
IC50 [24]: 15 nM
IC50 [25]: 19 nM
IC50 [26]: 5 nM
IC50 [27]: 1 nM and 2 nM and < 1 nM
IC50 [28]: 14 nM and 12 nM
